From US8679836B2, “Methods of monitoring angiogenesis and metastasis in three dimensional co-cultures” (The United States of America, as represented by the …, priority 2007, dated 2014)
Read-outs that look alike come from different tables or passages of the source.

Columns and labels:
PAE cells = experiment: 3D co-culture of fluorescent PAE cells with leiomyosarcoma HTB-88 xenograft biopsy tissue; type: cell-based, porcine; settings: 100 μg/ml, six days, FIG. 30
Description: Xenografts were prepared as in Example 7. Tumor xenografts were dissected when they reached about 1 cm in diameter and put into the sterile 15 ml or 50 ml tubes (Corning) with RPMI1640 medium supplemented with 10% FBS, 1% Glucose (Sigma), and 4× Antibiotic-Antimycotic (Invitrogen). The tumor xenografts were placed on wet ice and shipped to the lab within 2-3 hours. The Xenografts were rinsed 3 times in 70% ethanol and then 3 times in PBS. In the hood, the core biopsy was performed by biopsy punch (Miltex, Inc.) and was washed out into a 100 cm cell culture dish (Corning) by using a pipette to blow the top opening of the biopsy applicator. Using a disposable scalpel (Feather Safety Razor, Co. Japan), the core biopsy was dissected in three stages. 1 mm of both ends of the core biopsy was carefully cut off; they were transferred into a new 100 cm cell culture dish labeled P (peripheral section). Next, 1 mm of both ends of the remaining core biopsy were removed and discarded. […]
3D co-cultures were prepared as follows: 50 μl 1% SEAKEM™ LE agarose were added to individual wells of a 96-well plate and allowed to solidify at room temperature for 20 minutes. […] Cultures were incubated at 37° C. for 5-20 days and endothelial vessel network formation was observed by confocal laser scanning fluorescence microscopy. […]

HMEC-1 = experiment: 3D co-culture of HMEC-1 with leiomyosarcoma HTB-88 core biopsy xenograft, panel of angiogenesis inhibitors; type: cell-based, human; settings: 100 μg/ml, five-day incubation, versus Thalidomide, Sunitinib, Fumagillin
Description: Peripheral ringlet xenograft tissue/HMEC-1 co-cultures were incubated with Avastin®, Thalidomide, Sunitinib or Fumagilin.
3D co-cultures were prepared as follows: 50 μl 1% SEAKEM™ LE agarose were added to individual wells of a 96-well plate and allowed to solidify at room temperature for 20 minutes. 30 μl GELTREX® gel matrix (Invitrogen) were combined with PAE, LEC or HMEC-1 cells at a cell density of 560,000 cells/ml and added to each well of the plate (atop the solidified agarose). Plates were maintained on wet ice (4° C.) to prevent solidification of the gel matrix/cell mixture (the second layer). A single tumor cell spheroid colony or single ringlet of xenograft core biopsy was added to the center of the well and the matrix gel was solidified at 37° C. On top of the tumor/endothelial cell gel layer, 80 μl EBM-2+1% FBS were added to a final concentration of EMB-2+0.5% FBS in relation to the total volume of the culture. Cultures were incubated at 37° C. for 5-20 days and endothelial vessel network formation was observed by confocal laser scanning fluorescence microscopy. […]
Identifying the most efficacious therapy for a particular patient is a crucial goal for successful cancer treatment. […] Several FDA approved anti-angiogenic compounds were assessed in this capacity, including Avastin®, Thalidomide, and Sunitinib as well as the non-FDA approved drug Fumagillin.

PAE-GFP cells = experiment: Tubule formation assay on gelled BME, quantified with AngioApplication; type: cell-based, porcine; settings: for EC50: Sus scrofa
Description: This example describes exemplary procedures for measuring the ability of the cell lines disclosed herein for tubule formation potential. 50 μl of low growth factor BME (Basement Membrane Extract, Trevigen, Inc. Gaithersburg, Md.) were laid down in each well and the plate was incubated for 1 hour at 37° C. The extract gels at 37° C. to form a reconstituted basement membrane and stimulates tubule formation by endothelial cells. The major components of the Basement Membrane Extract (BME) include laminin I, collagen IV, entactin, and heparin sulfate proteoglycan. 15,000 PAE-GFP cells were then added on top of the gelled BME and images were acquired with a fluorescent microscope after 3.5-24 hours. Cells were imaged on the BD Pathway™ Bioimager. […] Tubule formation assays were quantified using the Java based software AngioApplication™. AngioApplication™ has been specifically designed for the quantification of tubule formation assays. Several morphological parameters were assessed in images including the total area of the tubules, the total number of tubules, number of nodes, number of branch points, the number of tubes per node, or node.
As shown in FIG. 7A increasing concentrations of suramin causes disruption of tubule formation. AngioApplication™ was used to automatically assess tube length at several concentrations of suramin. Traditionally quantification of tube formation was based in the measurement of complete (long) tubes in the image. AngioApplication™ determined that as the concentration of suramin was increased the number of long tubules was diminished. […] In addition, because AngioApplication™ calculates the length for all tubes in the image (including incomplete tubes) a more refined analysis was performed using the measurement of short (or incomplete) tubules. […] This is in agreement with the fact that Suramin interferes with the mechanism of tube formation.

| Molecule | effect on PAE proliferation (PAE cells) | effect on tubule formation (PAE cells) | inhibition of proliferation, compared with the other inhibitors (HMEC-1) | inhibition of tubule formation, compared with the other inhibitors (HMEC-1) | effect on tubule formation (PAE-GFP cells; PAE green cells, 0 to 26 μM) | EC50 (PAE-GFP cells; read-out: EC50, number of long tubules) | EC50 (PAE-GFP cells; read-out: EC50, number of short (incomplete) tubules) | EC50 (PAE-GFP cells; read-out: EC50 calculated, tubule formation) |
| --- | --- | --- | --- | --- | --- | --- | --- | --- |
| Avastin®: monoclonal antibody directed against an isoform of VEGF, FDA-approved angiogenesis inhibitor | inhibited | inhibited | greatest inhibition | greatest inhibition | – | – | – | – |
| Cc1ccc(C(=O)Nc2ccc(S(=O)(=O)O)c3cc(S(=O)(=O)O)cc(S(=O)(=O)O)c23)cc1NC(=O)c1cccc(NC(=O)Nc2cccc(C(=O)Nc3cc(C(=O)Nc4ccc(S(=O)(=O)O)c5cc(S(=O)(=O)O)cc(S(=O)(=O)O)c45)ccc3C)c2)c1 [suramin] | – | – | – | – | inhibited tubule formation | ~26 µM | ~26 µM | ~26 µM |
